Broadly, the Ki is a dissociation constant, usually derived from enzyme kinetics or from competition with a known ligand.

For experiment [1], the target named is Prostaglandin F2-alpha receptor (Bos taurus, UniProt P37289). The experiment in a line: Binding affinity for Prostanoid FP receptor of bovine corpus luteum.
The target of experiment [2] is Prostaglandin F2-alpha receptor (Mus musculus) (UniProt P43117). As to the kind of experiment: Percent response for stimulation of prostanoid FP receptor-linked phosphoinositide turnover in Swiss 3T3 mouse fibroblast cells.
Experiment [3] deals with Monkey. The experiment in a line: Percentage change to elicit monkey intraocular pressure at 3 ug. The experiment is classed as functional, Cercopithecidae, Eye.
For experiment [4], the species on record is Felis catus. As to the kind of experiment: Effective dose to cat pupil diameter constriction.
For experiment [5], the species on record is Oryctolagus cuniculus. As to the kind of experiment: Effective dose estimated to elicit conjunctival hyperemia in rabbits over 4 h. The experiment is classed as functional, Conjunctiva.
Experiment [6] relates to Monkey. As to the kind of experiment: Percentage change to elicit monkey intraocular pressure at 1 ug. Type of experiment: functional, Cercopithecidae, Eye.
For experiment [7], the system named is Monkey. The experiment in a line: Percentage change to elicit monkey intraocular pressure at 30 ug. Type of experiment: functional, Cercopithecidae, Eye.
In experiment [8] the test system is Monkey. As to the kind of experiment: Percentage change to elicit monkey intraocular pressure at 0.3 ug. The experiment is classed as functional, Cercopithecidae, Eye.

Sequence of Prostaglandin F2-alpha receptor (P37289 whole entry): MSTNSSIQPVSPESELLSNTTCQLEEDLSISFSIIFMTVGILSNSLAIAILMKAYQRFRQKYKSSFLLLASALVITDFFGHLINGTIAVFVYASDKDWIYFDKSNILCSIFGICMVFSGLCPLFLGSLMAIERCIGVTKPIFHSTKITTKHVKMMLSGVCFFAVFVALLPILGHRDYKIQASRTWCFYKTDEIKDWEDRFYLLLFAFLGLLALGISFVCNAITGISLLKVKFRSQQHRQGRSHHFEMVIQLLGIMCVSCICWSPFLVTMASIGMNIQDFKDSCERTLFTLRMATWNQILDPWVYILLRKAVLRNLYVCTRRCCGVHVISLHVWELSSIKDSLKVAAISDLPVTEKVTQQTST
Sequence of Prostaglandin F2-alpha receptor (Mus musculus) (P43117 whole entry, looked up): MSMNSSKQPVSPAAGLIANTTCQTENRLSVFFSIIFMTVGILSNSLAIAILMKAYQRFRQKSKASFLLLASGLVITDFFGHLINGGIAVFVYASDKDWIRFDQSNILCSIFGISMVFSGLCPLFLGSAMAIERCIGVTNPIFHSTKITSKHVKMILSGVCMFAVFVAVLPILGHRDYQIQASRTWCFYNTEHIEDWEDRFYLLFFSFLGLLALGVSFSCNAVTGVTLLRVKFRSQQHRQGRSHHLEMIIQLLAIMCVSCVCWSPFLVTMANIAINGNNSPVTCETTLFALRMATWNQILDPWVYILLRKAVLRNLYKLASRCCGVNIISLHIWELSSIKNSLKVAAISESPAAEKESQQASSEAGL

As to `CCCCC[C@@H](O)/C=C/[C@H]1OC[C@H](O)[C@@H]1C/C=C\CCCC(=O)O`, in experiment [1], the Ki is more than 10000 nM.
On to `CC(C)OC(=O)CCC/C=C/C[C@@H]1[C@@H](CC[C@@H](O)CCc2ccccc2)[C@H](O)C[C@@H]1O`, for which the Response in experiment [2] turned out to be 75%. Besides, the Change in experiment [3] is listed as -27%. Moreover, the values for the ED5 in experiment [4] and in experiment [5] were 0.13 µg and 1.8 µg, respectively. In experiment [1], this compound came in with a Ki of 92 nM.
Regarding `CCCCC[C@H](O)/C=C/C1[C@H](O)C[C@H](O)[C@@H]1C/C=C\CCCC(=O)OC(C)C` (stereo partly specified), the values for the ED5 in experiment [4] and in experiment [5] were 0.03 µg and less than 0.1 µg, respectively. In addition, the Change in experiment [6] is -38%.
As for `CC(C)OC(=O)CCC/C=C\C[C@H]1[C@@H](O)CO[C@@H]1/C=C/[C@@H](O)COc1cccc(Cl)c1`, the Change in experiment [7] is recorded as -15%. In addition, the ED5 in experiment [4] was 0.8 µg; in experiment [5] it was 30 µg.
As to `O=C(O)CC/C=C\CCC[C@H]1[C@@H](O)CO[C@@H]1/C=C/[C@@H](O)COc1ccccc1`, the Response in experiment [2] was found to be 83%. Moreover, the Ki in experiment [1] stood at 330 nM.
`O=C(O)CCCC/C=C\C[C@H]1[C@@H](O)CO[C@@H]1/C=C/[C@H](O)COc1cccc(Cl)c1` came in with a Response in experiment [2] of 67%. This compound had a Ki in experiment [1] of 7300 nM.
The compound `CC(C)OC(=O)CCC/C=C/C[C@@H]1[C@@H](/C=C/C(O)COc2cccc(C(F)(F)F)c2)[C@H](O)C[C@@H]1O` (stereo partly specified) registered a Response in experiment [2] of 100%. The ED5 was 0.01 µg in experiment [4] and 3 µg in experiment [5]. In addition, the Change in experiment [8] is on record as -29%. In experiment [1], this compound yielded a Ki of 52 nM.
In the case of `O=C(O)CCCC/C=C\C[C@H]1[C@@H](O)CO[C@@H]1/C=C/[C@@H](O)COc1cccc(Cl)c1`, in experiment [2], the Response stood at 84%. Also, the affinity in experiment [1] corresponds to a Ki of 890 nM.
`O=C(O)CCCC/C=C\C[C@H]1[C@@H](O)CO[C@@H]1/C=C/[C@H](O)COc1cccc(C(F)(F)F)c1` had a Response in experiment [2] of 43%. For the same compound, in experiment [1], the Ki is more than 10000 nM.
In experiment [2], `CCCCC[C@H](O)/C=C/[C@H]1OC[C@H](O)[C@@H]1C/C=C\CCCC(=O)O` displayed a Response of 64%. For the same compound, in experiment [1], the Ki was determined as 6700 nM.
`O=C(O)CC/C=C\CCC[C@H]1[C@@H](O)CO[C@@H]1/C=C/[C@@H](O)COc1cccc(Cl)c1`: the Response in experiment [2] was found to be 88%. Also, in experiment [1], the Ki was determined as 147 nM.
Consider `O=C(O)CC/C=C\CCC[C@H]1[C@@H](O)CO[C@@H]1/C=C/[C@H](O)COc1ccccc1`, for which the Response in experiment [2] is 59%. For the same compound, in experiment [1], the affinity, expressed as Ki, was 5100 nM.
`CC(C)OC(=O)CCC/C=C\CC[C@H]1[C@@H](O)CO[C@@H]1/C=C/[C@@H](O)COc1cccc(Cl)c1` [AL-12182]: in experiment [3], the Change is -40%. In addition, the figures for the ED5 in experiment [4] and in experiment [5] were 0.2 µg and 30 µg, respectively.
The compound `O=C(O)CCCC/C=C\C[C@H]1[C@@H](O)CO[C@@H]1/C=C/[C@@H](O)COc1ccccc1` registered a Response in experiment [2] of 67%. The compound further registered a Ki in experiment [1] of 640 nM.
On to `O=C(O)CC/C=C\CCC[C@H]1[C@@H](O)CO[C@@H]1/C=C/[C@H](O)COc1cccc(C(F)(F)F)c1`, for which the Response in experiment [2] amounted to 61%. Further, the Ki in experiment [1] was found to be 9900 nM.
In experiment [2], `O=C(O)CC/C=C\CCC[C@H]1[C@@H](O)CO[C@@H]1/C=C/[C@H](O)COc1cccc(Cl)c1` registered a Response of 71%. Besides, in experiment [1], the affinity, expressed as Ki, was 820 nM.
Turning to `O=C(O)CCCC/C=C\C[C@H]1[C@@H](O)CO[C@@H]1/C=C/[C@H](O)COc1ccccc1`, the Response in experiment [2] turned out to be 49%. In experiment [1], this compound returned a Ki of 2800 nM.
As to `O=C(O)CCCC/C=C\C[C@H]1[C@@H](O)CO[C@@H]1/C=C/[C@@H](O)COc1cccc(C(F)(F)F)c1`, the Response in experiment [2] amounted to 74%. In addition, the affinity in experiment [1], expressed as Ki, was 3100 nM.
In turn, `O=C(O)CC/C=C\CCC[C@H]1[C@@H](O)CO[C@@H]1/C=C/[C@@H](O)COc1cccc(C(F)(F)F)c1` registered a Response in experiment [2] of 88%. For the same compound, the inhibition constant Ki in experiment [1] was found to be 350 nM.

Values taken from ChEMBL document CHEMBL1137983, “AL-12182, a novel 11-oxa prostaglandin analog with topical ocular hypotensive activity in the monkey” (Bioorg Med Chem Lett, 2004).
